Source: publication PMC10114980, “Triple targeting of mutant EGFR^L858R/T790M, COX-2, and 15-LOX: design and synthesis of novel quinazolinone tethered phenyl urea derivatives for anti-inflammatory and anticancer evaluation” (Journal of Enzyme Inhibition and Medicinal Chemistry, 2023)

Columns and labels:
[1] = system: OVCAR-8; experiment: NCI single dose screen, OVCAR-8; assay type: cell-based; details: Homo sapiens; OVCAR-8, ovarian cancer; single dose 10^−5 M; read-out: growth inhibition percentage
Procedure: (§1) Screening of the anticancer activity of the newly synthesised compounds (6a, 6c, 6d, 6e, 6j, 6l, 6m, 6n, 6o, and 6p) was performed by the US National Cancer Institute (NCI) using 60 different human tumour cell lines in accordance with standard procedures formerly reported.
(§2) In vitro anticancer screening was carried out for the selected compounds at a single dose (10^−5 M) against 60 different human tumour cell lines of nine different cancer cell types: leukaemia, lung, colon, CNS, melanoma, ovarian, renal, prostate, and breast cancers.

[2] = Cell viability assay against normal cell line (MTS); assay type: cell-based; details: mouse, RAW 264.7 cells, concentrations up to 50 μM, read-out: cell viability percentage of the control values
Procedure: To evaluate the possible non-selective cytotoxic effect of the investigated compounds (6a, 6c, 6d, 6e, 6j, 6l, 6m, 6n, 6o, and 6p) on normal cells, their effect on RAW 264.7 cells viability was assessed at different concentrations (12.5, 25, 50, and 100 µM). Cell viability was measured using 3-(4,5-dimethylthiazol-2-yl)-5-(3-carboxymethoxyphenyl)-2-(4 sulfophenyl)-2H-tetrazolium (MTS) assay (Promega, Madison, Wisconsin) according to the manufacturer’s instructions.

[3] = system: SK-MEL-28; experiment: NCI single dose screen, SK-MEL-28; assay type: cell-based; details: Homo sapiens; SK-MEL-28, melanoma; single dose 10^−5 M; read-out: growth inhibition percentage
Procedure: as §1, §2

[4] = system: BT-549; experiment: NCI single dose screen, BT-549; assay type: cell-based; details: Homo sapiens; BT-549, breast cancer; single dose 10^−5 M; read-out: growth inhibition percentage
Procedure: as §1, §2

[5] = system: HCT-116; experiment: NCI single dose screen, HCT-116; assay type: cell-based; details: Homo sapiens; HCT-116, colon cancer; single dose 10^−5 M; read-out: growth inhibition percentage
Procedure: as §1, §2

[6] = system: HL-60(TB); experiment: NCI single dose screen, HL-60(TB); assay type: cell-based; details: Homo sapiens, leukaemia, single dose 10^−5 M, read-out: growth inhibition percentage
Procedure: as §1, §2

[7] = system: UO-31; experiment: NCI single dose screen, UO-31; assay type: cell-based; details: Homo sapiens; UO-31, renal cancer; single dose 10^−5 M; read-out: growth inhibition percentage
Procedure: as §1, §2

[8] = system: HCC-2998; experiment: NCI single dose screen, HCC-2998; assay type: cell-based; details: Homo sapiens; HCC-2998, colon cancer; single dose 10^−5 M; read-out: growth inhibition percentage
Procedure: as §1, §2

[9] = system: K-562; experiment: NCI single dose screen, K-562; assay type: cell-based; details: Homo sapiens, K562; K-562, leukaemia; single dose 10^−5 M; read-out: growth inhibition percentage
Procedure: as §1, §2

[10] = system: COLO 205; experiment: NCI single dose screen, COLO 205; assay type: cell-based; details: Homo sapiens; COLO 205, colon cancer; single dose 10^−5 M; read-out: growth inhibition percentage
Procedure: as §1, §2

[11] = system: HS 578T; experiment: NCI single dose screen, HS 578T; assay type: cell-based; details: Homo sapiens, breast cancer, single dose 10^−5 M, read-out: growth inhibition percentage
Procedure: as §1, §2

[12] = system: HOP-92; experiment: NCI single dose screen, HOP-92; assay type: cell-based; details: Homo sapiens; HOP-92, non-small cell lung cancer; single dose 10^−5 M; read-out: growth inhibition percentage
Procedure: as §1, §2

[13] = system: DU-145; experiment: NCI single dose screen, DU-145; assay type: cell-based; details: Homo sapiens; DU-145, prostate cancer; single dose 10^−5 M; read-out: growth inhibition percentage
Procedure: as §1, §2

[14] = system: SK-OV-3; experiment: NCI single dose screen, SK-OV-3; assay type: cell-based; details: Homo sapiens; SK-OV-3, ovarian cancer; single dose 10^−5 M; read-out: growth inhibition percentage
Procedure: as §1, §2

[15] = system: NCI-H322M; experiment: NCI single dose screen, NCI-H322M; assay type: cell-based; details: Homo sapiens, non-small cell lung cancer, single dose 10^−5 M, read-out: growth inhibition percentage
Procedure: as §1, §2

[16] = system: OVCAR-4; experiment: NCI single dose screen, OVCAR-4; assay type: cell-based; details: Homo sapiens; OVCAR-4, ovarian cancer; single dose 10^−5 M; read-out: growth inhibition percentage
Procedure: as §1, §2

[17] = system: SN12C; experiment: NCI single dose screen, SN12C; assay type: cell-based; details: Homo sapiens, renal cancer, single dose 10^−5 M, read-out: growth inhibition percentage
Procedure: as §1, §2

[18] = target: T1, human recombinant COX-2 (Homo sapiens, UniProt P35354); experiment: In vitro COX-2 inhibition assay kit (Cayman); assay type: biochemical; details: for COX-2 SI: Selectivity index = COX-1 IC50/COX-2 IC50; for IC50: human recombinant COX-2, mean ± SEM, n = 3 replicates
T1 sequence (P35354 18-604): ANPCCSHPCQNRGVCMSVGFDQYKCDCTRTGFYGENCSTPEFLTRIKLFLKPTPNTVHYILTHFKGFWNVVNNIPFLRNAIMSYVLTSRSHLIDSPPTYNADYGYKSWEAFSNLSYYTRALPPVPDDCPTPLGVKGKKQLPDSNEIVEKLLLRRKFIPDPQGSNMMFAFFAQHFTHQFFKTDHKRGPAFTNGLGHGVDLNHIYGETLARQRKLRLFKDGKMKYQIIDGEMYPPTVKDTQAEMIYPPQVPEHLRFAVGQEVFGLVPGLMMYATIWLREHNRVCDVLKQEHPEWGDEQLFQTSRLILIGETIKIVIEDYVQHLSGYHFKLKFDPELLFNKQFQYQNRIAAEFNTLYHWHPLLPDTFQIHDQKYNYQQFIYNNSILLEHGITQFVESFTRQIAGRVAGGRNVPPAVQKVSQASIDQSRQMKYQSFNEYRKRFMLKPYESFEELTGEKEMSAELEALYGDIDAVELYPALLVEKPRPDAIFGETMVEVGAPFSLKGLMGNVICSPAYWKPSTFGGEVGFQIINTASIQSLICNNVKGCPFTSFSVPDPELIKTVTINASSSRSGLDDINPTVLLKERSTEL
Procedure: The half-maximal inhibitory concentration (IC50, μM) was determined, and the COX-2 selectivity index (SI) was calculated as IC50 (COX-1)/IC50 (COX-2).

[19] = system: T-47D; experiment: NCI single dose screen, T-47D; assay type: cell-based; details: Homo sapiens, T47D, breast cancer, single dose 10^−5 M, read-out: growth inhibition percentage
Procedure: as §1, §2

[20] = system: U251; experiment: NCI single dose screen, U251; assay type: cell-based; details: Homo sapiens, U-251; U251, CNS cancer; single dose 10^−5 M; read-out: growth inhibition percentage
Procedure: as §1, §2

[21] = system: NCI-H23; experiment: NCI single dose screen, NCI-H23; assay type: cell-based; details: Homo sapiens; NCI-H23, non-small cell lung cancer; single dose 10^−5 M; read-out: growth inhibition percentage
Procedure: as §1, §2

SMILES | inhibition at 10 µM [1] [%] | viability [2] [%] | inhibition at 10 µM [3] [%] | inhibition at 10 µM [4] [%] | inhibition at 10 µM [5] [%] | inhibition at 10 µM [6] [%] | inhibition at 10 µM [7] [%] | inhibition at 10 µM [8] [%] | inhibition at 10 µM [9] [%] | inhibition at 10 µM [10] [%] | inhibition at 10 µM [11] [%] | inhibition at 10 µM [12] [%] | inhibition at 10 µM [13] [%] | inhibition at 10 µM [14] [%] | inhibition at 10 µM [15] [%] | inhibition at 10 µM [16] [%] | inhibition at 10 µM [17] [%] | COX-2 SI [18] | IC50 [18] [µM] | inhibition at 10 µM [19] [%] | further results
CN1c2ccccc2C(=O)N(NC(=O)Nc2ccc(F)cc2)C1c1ccccc1 (stereo not drawn) [Compound 6m, 1-(4-Fluorophenyl)-3-(1-methyl-4-oxo-2-phenyl-1,4-dihydroquinazolin-3(2H)-yl)urea] | < 10 | > 90 | < 10 | < 10 | < 10 | < 10 | 40.1 | < 10 | < 10 | < 10 | < 10 | < 10 | < 10 | < 10 | < 10 | 10.8 | < 10 | 3.93 | 3.16 ± 1.22 | 13.9 | inhibition at 10 µM [20]: < 10%; inhibition at 10 µM [21]: < 10%
CN1c2ccccc2C(=O)N(NC(=O)Nc2ccccc2)C1c1ccccc1 (stereo not drawn) [Compound 6c, 1-(1-Methyl-4-oxo-2-phenyl-1,4-dihydroquinazolin-3(2H)-yl)-3-phenylurea] | < 10 | > 90 | < 10 | < 10 | 16.8 | < 10 | 19.5 | < 10 | < 10 | < 10 | 56.8 | < 10 | < 10 | < 10 | < 10 | < 10 | < 10 | 0.29 | 3.41 ± 1.83 | < 10 | inhibition at 10 µM [20]: < 10%; inhibition at 10 µM [21]: < 10%
CN1c2ccccc2C(=O)N(NC(=O)Nc2ccccc2)C1c1ccc([N+](=O)[O-])cc1 (stereo not drawn) [Compound 6e, 1-(1-Methyl-2-(4-nitrophenyl)-4-oxo-1,4-dihydroquinazolin-3(2H)-yl)-3-phenylurea] | < 10 | > 90 | < 10 | 67.1 | 53.1 | < 10 | 14.4 | < 10 | < 10 | < 10 | < 10 | < 10 | < 10 | < 10 | < 10 | < 10 | < 10 | 11.48 | 0.83 ± 1.37 | < 10 | inhibition at 10 µM [20]: < 10%; inhibition at 10 µM [21]: < 10%
